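Protocol summary: plate cells (96-well), add compound at 5 concentrations, incubate 48 h, interpolate endpoints linearly. The concentration for full growth arrest is given as TGI.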
Experiments:
Assay in all cases: NCI tumour cell line growth inhibition, 48 h
SW-620 colon = test system: SW-620 colon
A549 NSCLC = test system: A549 NSCLC
K-562 leukemia = test system: K-562 leukemia
SNB-19 CNS = test system: SNB-19 CNS
SN12C renal = test system: SN12C renal
SF-295 CNS = test system: SF-295 CNS
TK-10 renal = test system: TK-10 renal
UACC-257 melanoma = test system: UACC-257 melanoma
ACHN renal = test system: ACHN renal
NCI-H226 lung = test system: NCI-H226 lung
HCC-2998 colon = test system: HCC-2998 colon
EKVX NSCLC = test system: EKVX NSCLC
NCI/ADR-RES ovarian = test system: NCI/ADR-RES ovarian
DU-145 prostate = test system: DU-145 prostate
PC-3 prostate = test system: PC-3 prostate

Compound	TGI (SW-620 colon) [µM]	TGI (A549 NSCLC) [µM]	TGI (K-562 leukemia) [µM]	TGI (SNB-19 CNS) [µM]	TGI (SN12C renal) [µM]	TGI (SF-295 CNS) [µM]	TGI (TK-10 renal) [µM]	TGI (UACC-257 melanoma) [µM]	TGI (ACHN renal) [µM]	TGI (NCI-H226 lung) [µM]	TGI (HCC-2998 colon) [µM]	TGI (EKVX NSCLC) [µM]	TGI (NCI/ADR-RES ovarian) [µM]	TGI (DU-145 prostate) [µM]	TGI (PC-3 prostate) [µM]
CC12CCC([C@H](N3CCOCC3)/C1=N\OCCN1CCCC1)C2(C)C (stereo not given in full)	> 100	> 100	> 100	> 100	> 100	> 100	> 100	> 100	> 100	> 100	> 100	> 100			
COc1ccc(N(C)CN(C)c2nc(N(C)C)nc(N(C)C)n2)cc1	> 100	> 100	> 100	> 100	> 100	> 100	> 100	> 100	> 100			> 100			
O=C1NCN(c2ccccc2)C12CCN(CCc1ccc3[nH]c(=S)[nH]c3c1)CC2	25.8	> 100		> 100	> 100	> 100	92.9	15.6	> 100			> 100	> 100	> 100	75.1
O=C1CSC(/C=C/c2ccccc2)N1c1ccc(-c2ccc(-n3c(-c4ccccc4)nc4ccccc4c3=O)cc2)cc1 (stereo not given)	65.1	68	> 100	62.3	> 100	55.7	> 100	93.1	94.9		> 100	73.1	> 100	> 100	65.3
O=c1cc(CO)n(CCc2c[nH]c3ccccc23)cc1O	> 100	> 100		> 100	> 100	> 100	> 100	> 100	> 100			> 100	99.6	83.3	> 100
CCCCCCCC(=O)OC[C@@H](C[As](=O)(O)O)OC(=O)CCCCCCC	25.9	19.3	51.4	27.3	23.3	28.9		35.6	25.6	18.6	29.2	84.4			
CN(C)/C(N)=N/C(N)=Nc1cccc(Cl)c1	> 100	> 100	> 100	> 100	> 100	> 100	> 100	> 100	> 100	79.3	> 100	> 100	> 100		> 100
N#Cc1nc(CSCc2ccccc2)oc1N	> 100	> 100			> 100	> 100	> 100	> 100	> 100	> 100	> 100		> 100	> 100	> 100
COc1ccc(-c2cc(-c3ccc(Cl)cc3)n(C3OC(CO)C(O)C(O)C3O)c(=S)c2C#N)cc1 (stereo not given)	> 100		> 100	> 100	> 100	> 100	82.8	> 100	> 100		> 100			> 100	> 100
O=c1[nH]c(=O)n(C2CC(O)C(CO)O2)cc1OCCc1ccccc1 (stereo not given)		> 100	> 100	> 100	> 100	> 100	> 100	> 100	> 100	> 100		> 100	> 100	> 100	> 100
C/C(=N/NC(=O)c1ccncc1)c1ccc(NC(=O)C(=O)Nn2c(=S)[nH]c3ccccc3c2=O)cc1	> 100	> 100		> 100	> 100	> 100	> 100	> 100	> 100	> 100	> 100	> 100	> 100	> 100	> 100
N=C(N)C1CN(CCc2cnc[nH]2)C(=O)NC1=O (stereo not given)	> 100	> 100		> 100	> 100	> 100	> 100	> 100	> 100		> 100	> 100		> 100	> 100
CCOc1cc(-c2nc3ccccn3c2/N=C/c2cc([N+](=O)[O-])cc([N+](=O)[O-])c2O)ccc1O	> 100	> 100	> 100	> 100	> 100	> 100	> 100	> 100	> 100			> 100	> 100	> 100	> 100
Cc1cccc2[nH]c3cc(O)cc(O)c3c(=O)c12	> 10	> 10	> 10	> 10	> 10	> 10	> 10	> 10	> 10	> 10			> 10	> 10	> 10
COC1(C(C)(C)C)C=C(C(C)(C)C)P(=O)(O)O1 (stereo not given)	> 100	> 100	> 100	> 100	> 100	> 100	> 100	> 100	> 100		> 100	> 100	> 100	> 100	> 100
CC1(C)OCC2(CO1)CSCCCSCC1(COC(C)(C)OC1)CSCCCSC2	> 100	> 100	> 100	> 100	> 100	> 100	> 100	> 100			> 100	> 100	> 100	> 100	> 100
COc1ccc(C2=C(Cl)c3cc(OC)c(OC)cc3C2=O)cc1OC	31.3	> 100		> 100	32.9	> 100	25.6	15.5	17.2	> 100	38.9	37.9	51.5	32.7	
CCC(CC)C(=O)OC[n+]1ccc(-c2c(COC(=O)NC(C)C)c(COC(=O)NC(C)C)c3n2CCC3)cc1	> 100	> 100	> 100	> 100	> 100	> 100		> 100		> 100	> 100	> 100	> 100		> 100
